Experimental data reported in US4230850A, “3-Substituted-4-aminoalkoxy-5,6-condensed ring-2-pyranones” (LIPHA, Lyonnaise Industrielle Pharmaceutique, priority 1976, dated 1980).

Assays:
[1] = system: intraventricular coronary artery; assay: rate of flow of the intraventricular coronary artery, electromagnetic flow meter, anaesthetised dog; type: in vivo; conditions: intravenous, Dipyridamol = 100
Description: The rate of flow of the intraventricular coronary artery was measured with an electromagnetic flow meter on the anaesthetised dog.
The different test compounds, administered intravenously, have caused considerable increases in the rate of flow, as reported in Table I below (the standard used for comparison being 2,6-di-[di-(2-hydroxyethyl)amino]-4,8-dipiperidinopyrimido-[5,4-d]-pyrimidine, which has the B.P.C. approved name of "Dipyridamole").

[2] = system: citric acid aerosol cough; assay: citric acid aerosol test on the guinea pig (anti-tussive); type: in vivo; conditions: administered in equitoxic dose per os
Source text: The compounds of the invention were compared with codeine.

[3] = system: vertebral rate of flow; assay: vertebral rate of flow in the anaesthetised dog; type: in vivo; conditions: papaverine = 1
Description: Likewise, the vasodilation produced by the compounds of the invention is measured by means of the vertebral rate of flow in the anaesthetised dog.

[4] = system: mice placed in a confined atmosphere; assay: protection against anoxia: survival time of mice placed in a confined atmosphere; type: in vivo, mouse; conditions: oral
Source text: As well as the vasodilatory activity, a strong protective action against the effects of anoxia has been found for the compounds of the invention. By way of example, Table VI indicates as a percentage the increase in the survival time caused by oral administration of certain compounds to mice placed in a confined atmosphere.

[5] = system: rats made hypertensive by the Goldblatt technique; assay: decrease in hypertension in rats made hypertensive by the Goldblatt technique; type: in vivo, rat; conditions: oral, (HS) or (S) given after value, not defined
Description: Anti-hypertensive (hypotensive) activity has been found with the compounds of the invention. With rats made hypertensive by the Goldblatt technique (M. GOLDBLATT, J. LUNCH, R. F. MANZAL and W. W. SUMMERVILLE, J. of Exper. Med. 1934, 59, 347-379), decreases in hypertension were recorded after oral administration of the test compound. By way of example, Table III gives the decreases obtained with some of the compounds.

[6] = system: phosphodiesterase of cyclic AMP; assay: inhibition of the phosphodiesterase of cyclic AMP in vitro; type: biochemical; design: unit not given beside the values; conditions: measured in vitro; unit not given
Source text: The compounds of the invention are capable of inhibiting the phosphodiesterase of cyclic AMP (adenosine monophosphate).
Table II gives the inhibition indices (ID50), measured in vitro, for some of the compounds of the invention.

[7] = system: femoral artery; assay: femoral artery rate of flow, electromagnetic flow meter, anaesthetised dog; type: in vivo; conditions: dog anaesthetised with Pentobarbital, papaverine = 1
Source text: The coefficients given in Table IV are expressed relatively to papaverine, which is given the coefficient 1, for the femoral dilation which it causes under similar conditions.

SMILES: Cc1ccc2oc(=O)c(-c3ccccc3)c(OCCCN3CCOCC3)c2c1
- Coefficient related to Dipyridamol [1]: 100

SMILES: COc1ccc2c3c1O[C@H]1[C@@H](O)C=C[C@H]4[C@@H](C2)N(C)CC[C@@]341 [Codeine, reference compound]
- % inhibition on average of number of coughs [2]: 55%

SMILES: OCCN(CCO)c1nc(N2CCCCC2)c2nc(N(CCO)CCO)nc(N3CCCCC3)c2n1 [Dipyridamol, 2,6-di-[di-(2-hydroxyethyl)amino]-4,8-dipiperidinopyrimido-[5,4-d]-pyrimidine, reference compound]
- Coefficient related to Dipyridamol [1]: 100

SMILES: O=c1oc2ccccc2c(OCCN2CCOCC2)c1-c1ccccc1 [Example 2, 4-(2'-Morpholinoethoxy)-3-phenyl-coumarin]
- Coefficient related to Dipyridamol [1]: 150
- Coefficient/Papaverine (vertebral rate of flow) [3]: 2
- Average % increase in survival time [4]: +41%
- Decrease in hypertension in mm.Hg., 3 to 5 hours after administration [5]: -34 mm.Hg.

SMILES: O=c1oc2ccccc2c(OCCN2CCCCC2)c1-c1ccccc1 [Example 3, 4-(2'-Piperidinoethoxy)-3-phenyl-coumarin]
- ID50 (inhibition indices) [6]: 150

SMILES: CN(C)CCCOc1c(-c2ccccc2)c(=O)oc2ccccc12 [Example 4, 4-(3'-Dimethylaminopropoxy)-3-phenyl-coumarin]
- Coefficient/Papaverine (femoral dilation) [7]: 60
- Coefficient/Papaverine (vertebral rate of flow) [3]: 6
- ID50 (inhibition indices) [6]: 150

SMILES: CCCCc1c(OCCN2CCOCC2)c2c(OCCN3CCOCC3)cc(OCCN3CCOCC3)cc2oc1=O [Example 5, 3-Butyl-4,5,7-tri(2'-morpholinoethoxy)-coumarin]
- Coefficient/Papaverine (vertebral rate of flow) [3]: 2

SMILES: O=c1oc2ccccc2c(OCCN2CCOCC2)c1-c1ccc(Br)cc1 [Example 7, 3-(4'-Bromophenyl)-4-(2"-morpholinoethoxy)-coumarin]
- Average % increase in survival time [4]: +50%

SMILES: Cc1c(OCCN2CCOCC2)c2ccccc2oc1=O [Example 9, 3-Methyl-4-(2'-morpholinoethoxy)-coumarin]
- Average % increase in survival time [4]: +30%

SMILES: O=c1oc2ccccc2c(OCCN2CCOCC2)c1-c1ccc(F)cc1 [Example 11, 3-(4'-Fluorophenyl)-4-(2"-morpholinoethoxy)-coumarin]
- Average % increase in survival time [4]: +45%

SMILES: Cc1ccc2oc(=O)c(-c3ccccc3)c(OCCN3CCOCC3)c2c1 [Example 12, 6-Methyl-4-(2'-morpholinoethoxy)-3-phenyl-coumarin]
- Coefficient related to Dipyridamol [1]: 150

SMILES: O=c1oc2c(c(OCCN3CCOCC3)c1-c1ccccc1)CCCC2 [Example 14, 4-(2'-Morpholinoethoxy)-3-phenyl-5,6,7,8-tetrahydro-coumarin]
- Average % increase in survival time [4]: +50%

SMILES: O=c1oc2ccccc2c(OCCCN2CCOCC2)c1-c1ccccc1 [Example 16, 4-(3'-Morpholinopropoxy)-3-phenyl-coumarin]
- Coefficient related to Dipyridamol [1]: 250

SMILES: CC(COc1c(-c2ccccc2)c(=O)oc2ccccc12)CN1CCOCC1 (stereo not drawn) [Example 19, 4-(3'-Morpholino-2'-methylpropoxy)-3-phenyl-coumarin]
- Coefficient/Papaverine (vertebral rate of flow) [3]: 3
- Average % increase in survival time [4]: +46%
- Decrease in hypertension in mm.Hg., 3 to 5 hours after administration [5]: -18 mm.Hg.
- ID50 (inhibition indices) [6]: 600

SMILES: COc1ccc2c(OCCN3CCOCC3)c(-c3ccccc3)c(=O)oc2c1 [Example 20, 7-Methoxy-4-(2'-morpholinoethoxy)-3-phenyl-coumarin]
- Coefficient/Papaverine (femoral dilation) [7]: 12

SMILES: COc1cccc2c(OCCN3CCOCC3)c(-c3ccccc3)c(=O)oc12 [Example 21, 8-Methoxy-4-(2'-morpholinoethoxy)-3-phenyl-coumarin]
- Coefficient/Papaverine (femoral dilation) [7]: 13
- Coefficient/Papaverine (vertebral rate of flow) [3]: 5

SMILES: O=c1oc2cccc(OCCN3CCOCC3)c2c(OCCN2CCOCC2)c1-c1ccccc1 [Example 23, Bis-4,5-(2'-morpholinoethoxy)-3-phenyl-coumarin]
- Coefficient related to Dipyridamol [1]: 300
- Coefficient/Papaverine (femoral dilation) [7]: 6
- Coefficient/Papaverine (vertebral rate of flow) [3]: 4.5

SMILES: CN1CCN(CCCOc2c(-c3ccccc3)c(=O)oc3ccccc23)CC1 [Example 27, 4-[3-(4"-Methyl-1"-piperazinyl)-propoxy]-3-phenyl-coumarin]
- Coefficient/Papaverine (vertebral rate of flow) [3]: 3

SMILES: O=c1oc2cccc(O)c2c(OCCN2CCOCC2)c1-c1ccccc1 [Example 30, 4-(2'-Morpholinoethoxy)-5-hydroxy-3-phenyl-coumarin]
- % inhibition on average of number of coughs [2]: 47%
- Average % increase in survival time [4]: +65%

SMILES: O=c1oc2c(O)cccc2c(OCCN2CCOCC2)c1-c1ccccc1 [Example 35, 8-Hydroxy-4-(2'-morpholinoethoxy)-3-phenyl-coumarin]
- Coefficient/Papaverine (femoral dilation) [7]: 8
- Coefficient/Papaverine (vertebral rate of flow) [3]: 10
- Decrease in hypertension in mm.Hg., 3 to 5 hours after administration [5]: -44 mm.Hg.

SMILES: O=c1oc2ccccc2c(OCC(O)CN2CCCCC2)c1-c1ccccc1 (stereo not drawn) [Example 37, 4-(3'-Piperidino-2'-hydroxypropoxy)-3-phenyl-coumarin]
- Coefficient/Papaverine (femoral dilation) [7]: 12
- Coefficient/Papaverine (vertebral rate of flow) [3]: 9

SMILES: O=c1oc2c(c(OCCN3CCOCC3)c1-c1ccccc1)CCc1ccccc1-2 [Example 44, 4-(2'-Morpholinoethoxy)-3-phenyl-5,6-dihydro-[h]-benzocoumarin]
- % inhibition on average of number of coughs [2]: 48%

SMILES: O=c1oc2c(c(OCCN3CCOCC3)c1-c1ccccc1)-c1ccccc1C2c1ccccc1 (stereo not drawn) [Example 45, 4-(2'-Morpholinoethoxy)-3,9-diphenyl-[2-1-b]-indeno-[2H]-pyran-2-one]
- Coefficient/Papaverine (femoral dilation) [7]: 60
- Decrease in hypertension in mm.Hg., 3 to 5 hours after administration [5]: -49 mm.Hg.

SMILES: CC(COc1c2c(oc(=O)c1-c1ccccc1)CCCC2)CN1CCOCC1 (stereo not drawn) [Example 46, 4-(3'-Morpholino-2'-methylpropoxy)-3-phenyl-5,6,7,8-tetrahydrocoumarin]
- Average % increase in survival time [4]: +40%
- ID50 (inhibition indices) [6]: 600

SMILES: O=c1oc2c(c(OCCCN3CCOCC3)c1-c1ccccc1)CCCC2 [Example 47, 4-(3'-Morpholinopropoxy)-3-phenyl-5,6,7,8-tetrahydrocoumarin]
- ID50 (inhibition indices) [6]: 200

SMILES: CC(COc1c2c(oc(=O)c1-c1ccccc1)CCCCCC2)CN1CCOCC1 (stereo not drawn) [Example 51, 4-(3'-Morpholino-2'-methylpropoxy)-3-phenyl[1-2-b]-cyclooctano-(2H)-pyran-2-one]
- % inhibition on average of number of coughs [2]: 60%

SMILES: COc1ccc(Cc2nccc3cc(OC)c(OC)cc23)cc1OC [Papaverine, reference compound]
- Coefficient/Papaverine (femoral dilation) [7]: 1
- Coefficient/Papaverine (vertebral rate of flow) [3]: 1

SMILES: O=c1oc2c(c(OCCN3CCOCC3)c1-c1ccccc1)CCCC2 [drawing 27]
- Coefficient/Papaverine (femoral dilation) [7]: 12

SMILES: O=c1oc2c(c(OCCN3CCOCC3)c1-c1ccccc1)CCCC2 [drawing 39]
- Coefficient/Papaverine (vertebral rate of flow) [3]: 5.5

SMILES: O=c1oc2c(c(OCCN3CCOCC3)c1-c1ccccc1)CCCC2 [drawing 49]
- % inhibition on average of number of coughs [2]: 85%
